In patent US6423518B1, “Design and production of mutant 2,5-diketo-D-gluconic acid reductase enzymes with altered cofactor dependency” (Rutgers, the State University, priority 2000, dated 2002):

How the values were obtained:
Test in all cases: Kinetic determination with purified enzyme, NADH cofactor, initial rates (microtiter plate)
Format in all cases: biochemical
[1] = target: T1, 2,5-diketo-D-gluconic acid reductase A (Corynebacterium sp., wild type SEQ ID NO:1) variant K232M (Corynebacterium sp., UniProt P06632, K232M)
T1 construct: GroES fragment (N); made in house; host or cells: E. coli JM109
T1 sequence (P06632 whole entry K232M, the tested form may be a part): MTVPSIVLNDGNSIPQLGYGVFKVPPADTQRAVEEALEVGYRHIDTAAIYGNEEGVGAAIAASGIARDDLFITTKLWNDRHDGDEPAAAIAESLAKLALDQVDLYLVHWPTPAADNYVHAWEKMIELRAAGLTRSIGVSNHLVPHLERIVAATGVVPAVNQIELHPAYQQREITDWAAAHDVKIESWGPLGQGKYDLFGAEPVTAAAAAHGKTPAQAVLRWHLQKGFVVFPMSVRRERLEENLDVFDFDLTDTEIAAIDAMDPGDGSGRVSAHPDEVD
Protocol: (§1) The activities of the purified enzymes were assayed in 96-well microtiter plates on a plate reader.
(§2) Equation (1) is: [formula]
(§3) B=2,5-diketo-D-gluconic acid concentration;
(§4) Kb=Michaelis Constant for 2,5-diketo-D-gluconic acid;
(§5) Et=Total enzyme concentration.
(§6) This equation is only valid when B<<Kb.
(§7) Cells containing plasmids for some of the mutant reductases were grown up on a 1 liter scale using a 10 ml inoculum from a saturated overnight culture. The cells were grown until absorbance of the culture at 600 nm was approximately 1.0. The cells were then induced by adding IPTG to a final concentration of 1 mM. The cells were harvested after growth at 37° C. for 4 hours. The cells were then pelleted by centrifugation and frozen for later use. At a later date, cells were thawed and lysed with the Bug Buster detergent (Novagen) containing Complete Protease Inhibitor Cocktail Tablets (Roche). The pH was lowered to 5.5 with 20 mM sodium acetate (NaOAc) and NaCl was added to a final concentration of 0.15 M. After 10 minutes with the detergent, the cell debris was removed by centrifugation, and the supernatant was loaded onto disposable chromatography columns containing a 10 ml bed volume of DEAE Cellulose (Sigma) for a batch weak ion exchange step. The resin was washed with 0.15 M NaCl, still in the presence of NaOAc, pH 5.5. The bound proteins were then eluted by two washes with 0.5 M NaCl.

[2] = target: T2, 2,5-diketo-D-gluconic acid reductase A (Corynebacterium sp., wild type SEQ ID NO:1) variant K232Q (Corynebacterium sp., UniProt P06632, K232Q)
T2 construct: GroES fragment (N); made in house; host or cells: E. coli JM109
T2 sequence (P06632 whole entry K232Q, the tested form may be a part): as the sequence (P06632 whole entry K232M, the tested form may be a part) above, with M232Q counted along it
Protocol: as §1, §2, §3, §4, §5, §6, §7

[3] = target: T3, 2,5-diketo-D-gluconic acid reductase A (Corynebacterium sp., wild type SEQ ID NO:1) variant K232G (Corynebacterium sp., UniProt P06632, K232G)
T3 construct: GroES fragment (N); made in house; host or cells: E. coli JM109
T3 sequence (P06632 whole entry K232G, the tested form may be a part): as the sequence (P06632 whole entry K232M, the tested form may be a part) above, with M232G counted along it
Protocol: as §1, §2, §3, §4
(§8) Kia=Dissociation Constant for NADH;
as §5
(§9) However, the parameters could not be fit in this model with any accuracy, due to the large apparent value of KM for 2,5-diketo-D-gluconic acid, and the low concentration of 2,5-diketo-D-gluconic acid that was used. The 2,5-diketo-D-gluconic acid concentrations were not large enough to saturate the enzyme, so a further mathematical simplification was required. Preliminary fitting of the model indicated both kcat and Kb to be very large in comparison to Ka and Kia Therefore, the rate equation was simplified to the following equation (2): [formula]
as §6
(§10) This equation was then used to fit the kinetic data, with much better results.
(§11) Other comparisons can also be made between the different mutants using these parameters. […]
as §7, with “NaCl. The eluted material was then diluted back to 0.15 M NaCl by the addition of more 20 mM NaOAc buffer. This was then loaded onto a 4.6 mmD/100mml PEEK column (PerSeptive Biosystems) containing 50 μm DEAE Ceramic HyperD F resin (BioSepra) using an FPLC system. The high performance resin was washed with 0.1 M NaCl and the bound proteins were eluted using a linear salt gradient up to 0.4 M NaCl. Active fractions were pooled and the pH was raised to 7.0 using 50 mM bis-Tris. The pooled fractions were then concentrated by ultrafiltration in a stirred cell unit using a polyethersulfone membrane with a 10,000 MW cut-off (Millipore). The concentrate was loaded onto a Superdex-75 gel filtration column (Pharmacia) using 50 mM bis-Tris pH 7.0 with an FPLC system. The active fractions were again pooled. A small sample from the pooled fractions was electrophoresed on a polyacrylamide gel in the presence of SDS in order to insure homogeneity of the final product.” for “NaCl.”
(§12) NADPH and NADH were prepared fresh for each use in kinetic measurements. These reactions were performed in 96-well microtiter plates using a SpectraMax 190 plate reader (Molecular Devices). Varying amounts of cofactor and substrate were added to the wells and reaction was initiated by the addition of the mutant enzyme. The final volume of each reaction was 200 μl, the reactions were buffered with 50 mM bis-Tris pH 7.0, and the temperature was held at 25° C. […] Initial rate data was collected in each well, and a standard curve was generated each day in order to correlate the change in absorbance of the reaction to a change in concentration of cofactors. All measurements were performed in triplicate (at least) and the runs were averaged for use in kinetic modeling.

[4] = target: T4, 2,5-diketo-D-gluconic acid reductase A (Corynebacterium sp., wild type SEQ ID NO:1) variant K232S (Corynebacterium sp., UniProt P06632, K232S)
T4 construct: GroES fragment (N); made in house; host or cells: E. coli JM109
T4 sequence (P06632 whole entry K232S, the tested form may be a part): as the sequence (P06632 whole entry K232M, the tested form may be a part) above, with M232S counted along it
Protocol: as §1, §2, §3, §4, §8, §5, §9, §6, §10, §11
as §7, with “NaCl. The eluted material was then diluted back to 0.15 M NaCl by the addition of more 20 mM NaOAc buffer. This was then loaded onto a 4.6 mmD/100mml PEEK column (PerSeptive Biosystems) containing 50 μm DEAE Ceramic HyperD F resin (BioSepra) using an FPLC system. The high performance resin was washed with 0.1 M NaCl and the bound proteins were eluted using a linear salt gradient up to 0.4 M NaCl. Active fractions were pooled and the pH was raised to 7.0 using 50 mM bis-Tris. The pooled fractions were then concentrated by ultrafiltration in a stirred cell unit using a polyethersulfone membrane with a 10,000 MW cut-off (Millipore). The concentrate was loaded onto a Superdex-75 gel filtration column (Pharmacia) using 50 mM bis-Tris pH 7.0 with an FPLC system. The active fractions were again pooled. A small sample from the pooled fractions was electrophoresed on a polyacrylamide gel in the presence of SDS in order to insure homogeneity of the final product.” for “NaCl.”
as §12

[5] = target: T5, 2,5-diketo-D-gluconic acid reductase A (Corynebacterium sp., wild type SEQ ID NO:1) variant R235G (Corynebacterium sp., UniProt P06632, R235G)
T5 construct: GroES fragment (N); made in house; host or cells: E. coli JM109
T5 sequence (P06632 whole entry R235G, the tested form may be a part): as the sequence (P06632 whole entry K232M, the tested form may be a part) above, with M232K, R235G counted along it
Protocol: as §1, §2, §3, §4, §8, §5, §9, §6, §10, §11
as §7, with “NaCl. The eluted material was then diluted back to 0.15 M NaCl by the addition of more 20 mM NaOAc buffer. This was then loaded onto a 4.6 mmD/100mml PEEK column (PerSeptive Biosystems) containing 50 μm DEAE Ceramic HyperD F resin (BioSepra) using an FPLC system. The high performance resin was washed with 0.1 M NaCl and the bound proteins were eluted using a linear salt gradient up to 0.4 M NaCl. Active fractions were pooled and the pH was raised to 7.0 using 50 mM bis-Tris. The pooled fractions were then concentrated by ultrafiltration in a stirred cell unit using a polyethersulfone membrane with a 10,000 MW cut-off (Millipore). The concentrate was loaded onto a Superdex-75 gel filtration column (Pharmacia) using 50 mM bis-Tris pH 7.0 with an FPLC system. The active fractions were again pooled. A small sample from the pooled fractions was electrophoresed on a polyacrylamide gel in the presence of SDS in order to insure homogeneity of the final product.” for “NaCl.”
as §12

[6] = target: T6, 2,5-diketo-D-gluconic acid reductase A (Corynebacterium sp., wild type SEQ ID NO:1) variant R235T (Corynebacterium sp., UniProt P06632, R235T)
T6 construct: GroES fragment (N); made in house; host or cells: E. coli JM109
T6 sequence (P06632 whole entry R235T, the tested form may be a part): as the sequence (P06632 whole entry K232M, the tested form may be a part) above, with M232K, R235T counted along it
Protocol: as §1, §2, §3, §4, §8, §5, §9, §6, §10, §11
as §7, with “NaCl. The eluted material was then diluted back to 0.15 M NaCl by the addition of more 20 mM NaOAc buffer. This was then loaded onto a 4.6 mmD/100mml PEEK column (PerSeptive Biosystems) containing 50 μm DEAE Ceramic HyperD F resin (BioSepra) using an FPLC system. The high performance resin was washed with 0.1 M NaCl and the bound proteins were eluted using a linear salt gradient up to 0.4 M NaCl. Active fractions were pooled and the pH was raised to 7.0 using 50 mM bis-Tris. The pooled fractions were then concentrated by ultrafiltration in a stirred cell unit using a polyethersulfone membrane with a 10,000 MW cut-off (Millipore). The concentrate was loaded onto a Superdex-75 gel filtration column (Pharmacia) using 50 mM bis-Tris pH 7.0 with an FPLC system. The active fractions were again pooled. A small sample from the pooled fractions was electrophoresed on a polyacrylamide gel in the presence of SDS in order to insure homogeneity of the final product.” for “NaCl.”
as §12

[7] = kcat/Ka apparent with NADH, relative to wild type
[8] = versus wild type, NADH as varied substrate

NC(=O)C1=CN([C@@H]2O[C@H](COP(=O)(O)OP(=O)(O)OC[C@H]3O[C@@H](n4cnc5c(N)ncnc54)[C@H](O)[C@@H]3O)[C@@H](O)[C@H]2O)C=CC1 [NADH]
Kd [1]: 3.89 ± 0.23 mM | (kcat/KbKia)/(kcat/KbKia)wt [1, 7]: 0.55 | Kd [2]: 3.87 ± 0.34 mM | (kcat/KbKia)/(kcat/KbKia)wt [2, 7]: 0.59 | Kd [3]: 2.02 ± 0.12 mM | (kcat/KbKia)/(kcat/KbKia)wt [3, 7]: 1.55 | Kia/(Kia)wt ([3]; relative to wild type, NADH): 0.78 | Kd [4]: 2.82 ± 0.27 mM | (kcat/KbKia)/(kcat/KbKia)wt [4, 7]: 0.40 | Kia/(Kia)wt ([4]; relative to wild type, NADH): 1.08 | Kd [5]: 8.42 ± 0.69 mM | (kcat/KbKia)/(kcat/KbKia)wt [5, 7]: 1.53 | Kia/(Kia)wt ([5]; relative to wild type, NADH): 3.24 | increase of apparent Ka [5, 8]: more than 3 fold | increase of apparent kcat [5, 8]: 5 fold | Kd [6]: 8.84 ± 2.28 mM
